Reference: PubChem BioAssay AID256 (DTP/NCI, 2004)
Values joined by “and” are separate entries in the source; they are usually repeats but may differ in a detail not shown here. Equal values may be shown once. Inconclusive results and toxic doses are left out. Rule for the calls: active = survival T/C of 150% or more; inactive = T/C below 125% in these data.

Tested on: CD2F1 mice, L1210 leukemia ip, survival T/C
Test: NCI In Vivo Anticancer Drug Screen. Data for tumor model L1210 Leukemia (intraperitoneal) in CD2F1 (CDF1) mice
Conditions: higher = longer survival
How it was run: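 Read-out first: treated-group measurement over vehicle-control measurement, expressed as a ratio. Animals bore a transplanted tumor line and were dosed with compound or vehicle.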

[1] = endpoint: mean survival time, dose: 100.0 mg/kg/injection, schedule: Q01DX009 (ip), vehicle: saline with Tween-80
[2] = endpoint: mean survival time, dose: 100.0 mg/kg/injection, schedule: Q04DX003 (ip), vehicle: saline with Tween-80
[3] = endpoint: mean survival time, dose: 200.0 mg/kg/injection, schedule: Q01DX009 (ip), vehicle: saline with Tween-80
[4] = endpoint: mean survival time, dose: 200.0 mg/kg/injection, schedule: Q04DX003 (ip), vehicle: saline with Tween-80
[5] = endpoint: mean survival time, dose: 400.0 mg/kg/injection, schedule: Q01DX009 (ip), vehicle: saline with Tween-80
[6] = endpoint: mean survival time, dose: 400.0 mg/kg/injection, schedule: Q04DX003 (ip), vehicle: saline with Tween-80
[7] = endpoint: mean survival time, dose: 100.0 mg/kg/injection, schedule: Q01DX001 (ip), vehicle: saline
[8] = endpoint: mean survival time, dose: 200.0 mg/kg/injection, schedule: Q01DX001 (ip), vehicle: saline
[9] = endpoint: mean survival time, dose: 400.0 mg/kg/injection, schedule: Q01DX001 (ip), vehicle: saline
[10] = endpoint: mean survival time, dose: 100.0 mg/kg/injection, schedule: Q01DX001 (ip), vehicle: saline with Tween-80
[11] = endpoint: mean survival time, dose: 200.0 mg/kg/injection, schedule: Q01DX001 (ip), vehicle: saline with Tween-80
[12] = endpoint: mean survival time, dose: 400.0 mg/kg/injection, schedule: Q01DX001 (ip), vehicle: saline with Tween-80
[13] = endpoint: mean survival time, dose: 100.0 mg/kg/injection, schedule: Q04DX003 (ip), vehicle: saline
[14] = endpoint: mean survival time, dose: 200.0 mg/kg/injection, schedule: Q04DX003 (ip), vehicle: saline
[15] = endpoint: mean survival time, dose: 400.0 mg/kg/injection, schedule: Q04DX003 (ip), vehicle: saline
[16] = endpoint: mean survival time, dose: 100.0 mg/kg/injection, schedule: Q04DX002 (ip), vehicle: saline with Tween-80
[17] = endpoint: mean survival time, dose: 200.0 mg/kg/injection, schedule: Q04DX002 (ip), vehicle: saline with Tween-80
[18] = endpoint: mean survival time, dose: 400.0 mg/kg/injection, schedule: Q04DX002 (ip), vehicle: saline with Tween-80

Measured: T/C

O=C1C(=C(C(F)(F)F)C(F)(F)F)CCc2ccc([N+](=O)[O-])cc21
inactive: [1] 102 % of control | [2] 114 % of control | [3] 104 % of control | [4] 101 % of control | [5] 102 % of control | [6] 103 % of control

Cc1cc(C)c(CC(C)C)c(C)c1
inactive: [7] 98 % of control | [8] 98 % of control | [9] 98 % of control

N#CCCn1c2ccccc2c2ccccc21
inactive: [2] 98 % of control | [4] 94 % of control | [6] 94 % of control

O=C(O)c1cc(N2CCCCC2)ccn1
inactive: [7] 94 % of control | [8] 100 % of control

O=C(O)/C=C/C(=O)O
inactive: [10] 93 % of control and 88 % of control | [2] 100 % of control | [11] 94 % of control | [12] 91 % of control

COc1cc(C2c3cc4c(cc3[C@@H](OC)[C@H]3COC(=O)C23)OCO4)cc(OC)c1O (stereo partly drawn)
inactive: endpoint: median survival time, dose: 1.25 mg/kg/injection, schedule: Q01DX009 (ip), vehicle: saline with Tween-80 108 % of control | endpoint: median survival time, dose: 2.5 mg/kg/injection, schedule: Q01DX009 (ip), vehicle: saline with Tween-80 104 % of control | endpoint: median survival time, dose: 5.0 mg/kg/injection, schedule: Q01DX009 (ip), vehicle: saline with Tween-80 105 % of control | endpoint: median survival time, dose: 10.0 mg/kg/injection, schedule: Q01DX009 (ip), vehicle: saline with Tween-80 103 % of control

O=C1CC(c2ccccc2)CO1 (stereo not drawn)
inactive: [7] 106 % of control | [8] 100 % of control

CC(=O)Nc1ccsc1
inactive: [7] 96 % of control | [8] 95 % of control | [9] 95 % of control

NC(=O)/C=C1\NC(=O)CS1
inactive: endpoint: mean survival time, dose: 100.0 mg/kg/injection, schedule: Q01DX009 (ip), vehicle: saline sonified 97 % of control | [2] 100 % of control | endpoint: mean survival time, dose: 200.0 mg/kg/injection, schedule: Q01DX009 (ip), vehicle: saline sonified 103 % of control | [4] 91 % of control | endpoint: mean survival time, dose: 400.0 mg/kg/injection, schedule: Q01DX009 (ip), vehicle: saline sonified 88 % of control | [6] 102 % of control

O=C(NNCN1C(=O)c2ccccc2C1=O)c1ccccc1
inactive: [7] 98 % of control | [13] 100 % of control | [8] 104 % of control | [14] 100 % of control | [9] 100 % of control | [15] 103 % of control

CCCCCCCCC(=O)CCCC
inactive: [13] 102 % of control | [14] 100 % of control | [15] 98 % of control

Cc1ccc(C2(O)c3ccccc3C(=O)N2c2ccccc2C)cc1 (stereo not drawn)
inactive: [1] 100 % of control | [2] 104 % of control | [3] 93 % of control | [4] 104 % of control | [5] 102 % of control | [6] 106 % of control

CC12CCC3C4CCC(=O)C(CCC(=O)O)=C4CCC3(CO1)C2 (stereo not drawn)
inactive: [10] 102 % of control | [11] 95 % of control | [12] 94 % of control

OCC1OC(n2cnc3c(NO)ncnc32)C(O)C1O (stereo not drawn)
inactive: endpoint: mean survival time, dose: 12.5 mg/kg/injection, schedule: Q01DX009 (ip), vehicle: Klucel (hydroxypropylcellulose) (HPC) 87 % of control and 103 % of control | endpoint: mean survival time, dose: 25.0 mg/kg/injection, schedule: Q01DX009 (ip), vehicle: Klucel (hydroxypropylcellulose) (HPC) 88 % of control and 104 % of control | endpoint: mean survival time, dose: 50.0 mg/kg/injection, schedule: Q01DX009 (ip), vehicle: Klucel (hydroxypropylcellulose) (HPC) 92 % of control and 104 % of control | endpoint: mean survival time, dose: 100.0 mg/kg/injection, schedule: Q01DX009 (ip), vehicle: Klucel (hydroxypropylcellulose) (HPC) 92 % of control and 104 % of control | endpoint: mean survival time, dose: 200.0 mg/kg/injection, schedule: Q01DX009 (ip), vehicle: Klucel (hydroxypropylcellulose) (HPC) 92 % of control and 104 % of control | endpoint: mean survival time, dose: 400.0 mg/kg/injection, schedule: Q01DX009 (ip), vehicle: Klucel (hydroxypropylcellulose) (HPC) 95 % of control and 107 % of control

Cc1nocc1CC1=C2CCCC(=O)C2(C)CCC1=O (stereo not drawn)
inactive: endpoint: mean survival time, dose: 100.0 mg/kg/injection, schedule: Q01DX001 (ip), vehicle: alcohol 94 % of control | endpoint: mean survival time, dose: 200.0 mg/kg/injection, schedule: Q01DX001 (ip), vehicle: alcohol 92 % of control | endpoint: mean survival time, dose: 400.0 mg/kg/injection, schedule: Q01DX001 (ip), vehicle: alcohol 95 % of control

C=CCOc1cccc(OCC=C)c1C
inactive: endpoint: mean survival time, dose: 100.0 mg/kg/injection, schedule: Q01DX009 (ip), vehicle: saline 102 % of control | endpoint: mean survival time, dose: 200.0 mg/kg/injection, schedule: Q01DX009 (ip), vehicle: saline 100 % of control | endpoint: mean survival time, dose: 400.0 mg/kg/injection, schedule: Q01DX009 (ip), vehicle: saline 100 % of control

Fc1cc2cc3ccccc3cc2c2ccccc12
inactive: [16] 101 % of control | [17] 104 % of control | [18] 104 % of control

Clc1ccc2ccc(Cl)cc2c1
inactive: [1] 94 % of control | [3] 96 % of control | [5] 105 % of control

Nc1ncnc2c1ncn2C1OCC(O)C(O)C1O (stereo not drawn)
inactive: endpoint: mean survival time, dose: 50.0 mg/kg/injection, schedule: Q01DX001 (ip), vehicle: saline 101 % of control | [7] 102 % of control | [8] 101 % of control | [9] 98 % of control

OCCOCCN1CCN(CC/C=C2\c3ccccc3Sc3ccc(C(F)(F)F)cc32)CC1
inactive: endpoint: mean survival time, dose: 0.75 mg/kg/injection, schedule: Q01DX009 (ip), vehicle: saline 87 % of control | endpoint: mean survival time, dose: 1.5 mg/kg/injection, schedule: Q01DX009 (ip), vehicle: saline 94 % of control | endpoint: mean survival time, dose: 3.0 mg/kg/injection, schedule: Q01DX009 (ip), vehicle: saline 100 % of control | endpoint: mean survival time, dose: 6.25 mg/kg/injection, schedule: Q04DX003 (ip), vehicle: saline 103 % of control | endpoint: mean survival time, dose: 8.0 mg/kg/injection, schedule: Q04DX003 (ip), vehicle: saline with Tween-80 115 % of control | endpoint: mean survival time, dose: 12.0 mg/kg/injection, schedule: Q04DX003 (ip), vehicle: saline with Tween-80 116 % of control | endpoint: mean survival time, dose: 25.0 mg/kg/injection, schedule: Q04DX003 (ip), vehicle: saline 97 % of control | endpoint: mean survival time, dose: 50.0 mg/kg/injection, schedule: Q04DX003 (ip), vehicle: saline 111 % of control | [13] 93 % of control

Cc1cc(-c2ccccc2)c2c(C#N)cn(-c3ccccc3)c2n1
inactive: [7] 87 % of control | [8] 92 % of control | [9] 92 % of control

CCCCCCCCCC(=O)NC(=S)Nc1ccc(Cl)cc1
inactive: endpoint: mean survival time, dose: 25.0 mg/kg/injection, schedule: Q01DX009 (ip), vehicle: saline with Tween-80 95 % of control and 96 % of control | endpoint: mean survival time, dose: 50.0 mg/kg/injection, schedule: Q01DX009 (ip), vehicle: saline with Tween-80 98 % of control and 101 % of control | [10] 94 % of control and 95 % of control | [16] 100 % of control and 104 % of control | [11] 92 % of control and 103 % of control | [17] 92 % of control and 93 % of control | [12] 100 % of control and 103 % of control | [18] 88 % of control and 90 % of control
